Assay results taken from US20210386829A1, “COMPOSITIONS AND METHODS FOR MODULATING CGRP SIGNALING TO REGULATE INNATE LYMPHOID CELL INFLAMMATORY RESPONSES” (The Broad Institute, Inc., priority 2018, published 2021).
“And” between values parts separate entries of the source, which are not always exact repeats. Identical values can stand only once. “Also recorded” adds a separate entry of the source.

Assays:
lung ILCs = experiment: culture of sort-purified lung ILCs with IL-7, IL-33 or IL-25+NMU with or without CGRP (qPCR, LegendPlex, intracellular cytokine staining); format: cell-based, mouse
Description: ILC in vitro culture. For in vitro experiments 5,000 ILCs/well were cultured in a 96 well round bottom plate with 20 ng/ml IL-7 (R&D Systems), 200 ng/ml IL-25 (R&D Systems) or 20 ng/ml, 2 ng/ml or 0.2 ng/ml IL-33 (BioLegend) with or without 1 μg/ml Neuromedin U (US Biological). In some cases purified CD90.2^+ lung cells were first labeled with CellTrace Violet (Thermo Fisher Scientific), then sorted as described above, and cultured for 3 days under the indicated conditions.
Quantitative real-time PCR. RNA was isolated using RNeasy Plus Mini Kit (Qiagen) and reverse transcribed to cDNA with iScript cDNA Synthesis Kit (Bio-Rad). Gene expression was analyzed by quantitative real-time PCR on a ViiA7 System (Thermo Fisher Scientific) using TaqMan Fast Advanced Master Mix (Thermo Fisher Scientific) with the following primer/probe sets: Il5 (Mm00439646_m1), Il13 (Mm00434204_m1), Il17rb (Mm00444709_m1), Nmur1 (Mm04207994_m1), Nmur2 (Mm00600704_m1), Nmu (Mm00479868_m1) and Actb (Applied Biosystems). Expression values were calculated relative to Actb detected in the same sample by duplex qPCR.
Cytokine quantification. Cytokine concentrations in BAL fluid, lung and supernatant of in vitro ILC cultures were analyzed by the LegendPlex Mouse Th Cytokine Panel (13-plex) (BioLegend) according to the manufacturer's instructions and analyzed on a FACS Calibur (BD Biosciences).
Culture of innate lymphoid cells. Sort-purified innate lymphoid cells (ILCs) were cultured under sterile conditions in complete medium in a humidified incubator at 37° C. and 10% CO2. ILCs were plated at a density of 3,000-5,000 ILCs per well in a 96 well round-bottom plate in cell culture medium with 20 ng/ml IL-7. Depending on the experiment, different combinations of 200 ng/ml IL-25, 200 ng/ml IL-33, 1 ug/ml NMU and 100 nM CGRP were added either at start or after overnight culture with 20 ng/ml IL-7. […]
For flow cytometric analysis, lung cells were transferred into a 96 well V-bottom plate and stained with surface antibodies for 20 min at 4° C. in the dark. Cells were washed twice with DPBS containing 2% fetal bovine serum and transferred into 1.2 ml tubes for analysis by flow cytometry. For intracellular cytokine staining, cells were incubated in complete cell culture medium with 50 ng/ml phorbol 12-myristate 13-acetate (Sigma-Aldrich), 1 uM ionomycin (Sigma-Aldrich) and GolgiStop (Cat #554724; BD Biosciences) in a humidified incubator at 37° C. and 10% CO2. After 5 hours, cells were transferred into 96 well V-bottom plate, stained with Fixable Viability Dye eFluor 506 (Cat #65-0866-14; Thermo Fisher) and surface antibodies for 20 min at 4° C. in the dark and washed twice with DPBS containing 2% fetal bovine serum. Then, cells were incubated with BD Cytofix/Cytoperm Buffer (Cat #51-2090KZ; BD Biosciences) for 20 min, followed by a wash with BD Perm/Wash Buffer (Cat #51-2091KZ; BD Biosciences). Subsequently, cells were incubated with antibodies targeting intracellular proteins diluted in BD Perm/Wash Buffer for 20 min and after two wash steps, transferred into 1.2 ml tubes for analysis by flow cytometry. For ki67 staining, cells were stained for surface antibodies as described above, fixed with a solution of Fixation/Permeabilization Concentrate (Cat #00-5123-43; Invitrogen) and Fixation/Perm Diluent (Cat #00-5223-56; Invitrogen) for 20 min, washed with Permeabilization Buffer (Cat #00-8333-56; Invitrogen). Then, cells were incubated with ki67 antibody diluted in Permeabilization Buffer for 20 min, washed and transferred into FACS tubes. Cells were analyzed on a BD LSRFortessa (BD Biosciences) flow cytometer with 5 lasers (355 nm, 405 nm, 488 nm, 561 nm and 640 nm). Data was analyzed using FlowJo v10.5.0 software and cell populations were gated as described previously (Wallrapp 2017).
RNA isolation and cDNA synthesis. […]

lung ILC2s = experiment: expression profiles (RNA-seq) of lung ILC2s cultured with CGRP, IL-33 or both; format: cell-based, mouse
Description: RNA-Seq. For population (bulk) RNA-seq, sorted ILCs were lysed with RLT Plus buffer and RNA was extracted using the RNeasy Plus Mini Kit (Qiagen). Full-length RNA-seq libraries were prepared as previously described (Singer, M. et al. A Distinct Gene Module for Dysfunction Uncoupled from Activation in Tumor-Infiltrating T Cells. Cell 166, 1500-1511 e1509, doi:10.1016/j.cell.2016.08.052 (2016). and paired-end sequenced (75 bp×2) with a 150 cycle Nextseq 500 high output V2 kit.
Culture of innate lymphoid cells. Sort-purified innate lymphoid cells (ILCs) were cultured under sterile conditions in complete medium in a humidified incubator at 37° C. and 10% CO2. ILCs were plated at a density of 3,000-5,000 ILCs per well in a 96 well round-bottom plate in cell culture medium with 20 ng/ml IL-7. Depending on the experiment, different combinations of 200 ng/ml IL-25, 200 ng/ml IL-33, 1 ug/ml NMU and 100 nM CGRP were added either at start or after overnight culture with 20 ng/ml IL-7. After 6 hours or 3 days, culture supernatant was removed and frozen at −20° C. and ILCs were lysed in Extraction Buffer (PicoPure RNA isolation Kit; Thermo Fisher Scientific), incubated at 42° C. for 30 min and frozen at −80° C.

[1] = IL-7+CGRP vs IL-7 alone, 6 hours
[2] = IL-33+CGRP vs IL-33 alone, 6 hours
[3] = IL-33+CGRP vs IL-33 alone, 3 days
[4] = IL-33+CGRP vs IL-33 alone, 3 days culture

CGRP: neuropeptide calcitonin gene-related peptide (encoded by Calca), ligand of the Ramp1/Calcrl receptor; given at 100 nM in vitro, 6.65 ug nasally
Il5 expression in ILC2s (qPCR) (lung ILCs; [1]): upregulated | Il13 expression in ILC2s (qPCR) (lung ILCs; [1]): downregulated | amphiregulin (Areg) expression in ILC2s (qPCR) (lung ILCs; [1]): trend of increased expression | type 2 cytokine (IL-5, IL-13) production at mRNA and protein level in ILCs (lung ILCs; IL-25+NMU+CGRP vs IL-25+NMU, 3 days): significantly reduced | Areg expression in ILC2s (qPCR) (lung ILCs; [2]): significantly increased | Il5 expression in ILC2s (qPCR) (lung ILCs; [2]): significantly increased | Il13 expression in ILC2s (qPCR) (lung ILCs; [2]): significantly decreased | IL-13 produced per cell (MFI) (lung ILCs; [3]): less | amount of IL-5 expressed per cell (MFI) (lung ILCs; [3]): significant decreases | frequency of IL-5-producing ILCs (flow cytometry) (lung ILCs; [3]): significant decreases | frequency of IL-13+ ILCs (flow cytometry) (lung ILCs; [3]): lower | Areg expression in ILCs (qPCR) (lung ILCs; [4]): increased | IL-5 production at RNA and protein level in ILCs (lung ILCs; [4]): reduces; also recorded: significantly reduced | IL-13 production at RNA and protein level in ILCs (lung ILCs; [4]): reduces; also recorded: significantly reduced; also recorded: remains repressed | IL-5 protein production (intracellular cytokine staining) (lung ILCs; short-term (8 hours) CGRP+IL33 vs IL-33 alone): induced | frequency of IL-13-positive ILC2s (intracellular cytokine staining) (lung ILCs; short-term (8 hours) treatment with CGRP+IL33): 2% | differentially expressed genes of CGRP alone shared with CGRP+IL-33 treatment (lung ILC2s; CGRP alone vs CGRP+IL-33): 112 genes | genes associated with cell cycle progression (Mki67, Birc5, Kdm8) (lung ILC2s; CGRP treatment alone): down-regulated | number of differentially expressed genes (lung ILC2s; CGRP treatment alone (IL-7+CGRP vs IL-7)): 331 genes | Il13 and Arg1 expression (effector ILC2 genes) (lung ILC2s; IL-33+CGRP vs IL-33): significantly down-regulated | genes associated with negative regulation of effector T cell responses (Pdcd1, Havcr2, Lilrb4, Entpd1, Tnfrsf18, FoxP3, Nfil3, Nr3c1, Fgl2) (lung ILC2s; IL-33+CGRP vs IL-33): upregulated | number of differentially expressed genes up-regulated in the presence of CGRP (lung ILC2s; IL-33+CGRP vs IL-33, 3 days): 635 genes | number of differentially expressed genes (lung ILC2s; IL-33+CGRP vs IL-33, 3 days, P<0.05, fold change >1.5): > 900 genes and 946 genes | Ramp3 and Calca expression in ILC2s (lung ILC2s; with CGRP, confirmed by qPCR): upregulated
